Laboratory results: US20240269139A1, “COMPOUNDS FOR TARGETED PROTEIN DEGRADATION OF KINASES” (DANA-FARBER CANCER INSTITUTE, INC., priority 2020, published 2024)
Where two headings read alike, the source gives them in different places.

System: protein kinases (human kinome)
Assay type: cell-based
Conditions: for logFC PDK3: PDK3 (Q15120-2); for Kinase hits: kinases significantly downregulated vs DMSO (fold change cutoff −1.25, P-value<0.01), ≤8 h, 0.1-5 μM degrader, 7 cell lines; for Total no. kinase hits: number of degraded kinases per library compound

CN(C)C(=O)c1cc2cnc(Nc3ccc(N4CCN(CCCCNC(=O)COc5cccc6c5C(=O)N(C5CCC(=O)NC5=O)C6=O)CC4)cn3)nc2n1C1CCCC1 (stereo not drawn) [BSJ.04.132]
logFC (ACAD10 (Q6JQN1-5), experiment wp084): −0.7484 | logFC (GK P32189-3, experiment wp084): −0.383 | logFC PDK3 (experiment wp084): −0.7397 | logFC PDK3 (Q15120-2) (experiment wp084): −0.7397

CC(C)(C)c1nc(-c2cccc(NS(=O)(=O)c3c(F)cccc3F)c2F)c(-c2ccnc(NCCOCCNC(=O)CCOCCOCCNc3cccc4c3CN(C3CCC(=O)NC3=O)C4=O)n2)s1 (stereo not drawn) [DD.03.107]
logFC (ACAD10 (Q6JQN1-5), experiment wp147, 1 uM): −0.5536 | logFC (ACAD10 (Q6JQN1-5), experiment wp147, 2 uM): −0.5234 | logFC (ACAD10 (Q6JQN1-5), experiment wp147, 4 uM): −1.061 | logFC (GK P32189-3, experiment wp147, 1 uM): −0.4979 | logFC (GK P32189-3, experiment wp147, 2 uM): −0.4324 | logFC (GK P32189-3, experiment wp147, 4 uM): −0.7592 | logFC PDK3 (experiment wp147, 1 uM): −0.5119 | logFC PDK3 (experiment wp147, 2 uM): −0.5406 | logFC PDK3 (experiment wp147, 4 uM): −1.004 | logFC PDK3 (Q15120-2) (experiment wp147, 1 uM): −0.5119 | logFC PDK3 (Q15120-2) (experiment wp147, 2 uM): −0.5406 | logFC PDK3 (Q15120-2) (experiment wp147, 4 uM): −1.004

O=C(COc1cccc2c1C(=O)N(C1CCC(=O)NC1=O)C2=O)NCCCCCCCC(=O)NC1(c2ccc(-c3nc4ccn5c(=O)[nH]nc5c4cc3-c3ccccc3)cc2)CCC1 (stereo not drawn) [INY.01.140.1]
logFC PDK3 (experiment wp081): −0.3755 | logFC PDK3 (Q15120-2) (experiment wp081): −0.3755

Cc1ccc(C(=O)Nc2ccc(CN3CCN(CCCOCCOCCOCCNC(=O)COc4cccc5c4C(=O)N(C4CCC(=O)NC4=O)C5=O)CC3)c(C(F)(F)F)c2)cc1C#Cc1cnc2cccnn12 (stereo not drawn) [SB1-G-187, N-(4-((4-(1-((2-(2,6-dioxopiperidin-3-yl)-1,3-dioxoisoindolin-4-yl)oxy)-2-oxo-6,9,12-trioxa-3-azapentadecan-15-yl)piperazin-1-yl)methyl)-3 (trifluoromethyl)phenyl)-3-(imidazo[1,2-b]pyridazin-3-ylethynyl)-4-methylbenzamide]
kinases the bifunctional compound degrades (as stated for the structure in the embodiments): ABL1, ABL2, BLK, CDK14, CDK17, CDK5. CDK6, COQ8A, EPHA1, EPHA2, FER, FYN, GAK, IRAK1, LCK, LYN, MAP3K1, MAP3K20, MAP3K7, MAP4K2, MAP4K5, MAPK14, PDK1, PDK2, PDK3, RIPK1, RIPK2, SRC, STK10, TAOK3, and YES1 | Kinase hits: ABL1, ABL2, BLK, CDK14, CDK17, CDK5, CDK6, COQ8A, EPHA1, EPHA2, FER, FYN, GAK, IRAK1, LCK, LYN, MAP3K1, MAP3K20, MAP3K7, MAP4K2, MAP4K5, MAPK14, PDK1, PDK2, PDK3, RIPK1, RIPK2, SRC, STK10, TAOK3, YES1, | Total no. kinase hits: 31

CC(C)S(=O)(=O)c1ccccc1Nc1nc(Nc2ccc(N3CCN(CCOCCNC(=O)CNc4cccc5c4C(=O)N(C4CCC(=O)NC4=O)C5=O)CC3)cc2)ncc1Cl (stereo not drawn) [SK-3-91]
targets with significantly different degrader efficacy in the different cell lines with no obvious difference in protein expression (MOLT-4, KELLY, HEK293T): SIK2, LIMK1, FAK | Kinase hits: AAK1, ABL1, ABL2, AKT2, AKT3, AURKA, AURKB, BCKDK, BLK, BMP2K, BMPR1A, BUB1, BUB1B, CDC7, CDK10, CDK12, CDK13, CDK14, CDK16, CDK17, CDK18, CDK2, CDK4, CDK5, CDK6, CDK7, CDK9, CO18A, CSK, CSNK1D, EPHB2, EPHB4, FER, FYN, GAK HIPK1, ITK, LATS1, | Total no. kinase hits: 89

Nc1ncc(-c2ccc(S(=O)(=O)N(CCCNC(=O)CCOCCOCCOCCOCCOCCNc3cccc4c3C(=O)N(C3CCC(=O)NC3=O)C4=O)C3CC3)cc2)cc1-c1ccc2c(c1)CCNC2=O (stereo not drawn) [WH.10417.099]
logFC CSNK1D (Accession P48730-2, experiment wp056, direction down): −1.455 | logFC CSNK1D (Accession P48730-2, experiment wp103, direction down): −1.301 | logFC CSNK1D (Accession P48730-2, experiment wp107, direction down): −1.248 | logFC CSNK1D (Accession P48730-2, experiment wp172, direction down): −0.6401 | logFC GSK3B (Accession P49841-2, experiment wp056, direction down): −1.294 | logFC GSK3B (Accession P49841-2, experiment wp103, direction down): −1.442 | logFC GSK3B (Accession P49841-2, experiment wp105, direction down): −0.8403 | logFC GSK3B (Accession P49841-2, experiment wp107, direction down): −1.446 | logFC (CSNK1A1 (P48729-2), experiment wp107): −2.428 | logFC CSNK1D (CSNK1D P48730-2, experiment wp056): −1.455 | logFC CSNK1D (CSNK1D P48730-2, experiment wp103): −1.301 | logFC CSNK1D (CSNK1D P48730-2, experiment wp107): −1.248 | logFC CSNK1D (CSNK1D P48730-2, experiment wp172): −0.6401 | logFC of CSNK1A1 (P48729-2) (Experiment wp107): −2.428 | logFC GSK3B (GSK3B P49841-2, experiment wp056): −1.294 | logFC GSK3B (GSK3B P49841-2, experiment wp103): −1.442 | logFC GSK3B (GSK3B P49841-2, experiment wp105): −0.8403 | logFC GSK3B (GSK3B P49841-2, experiment wp107): −1.446
